Experimental findings from ChEMBL document CHEMBL1158879, “Preparation of 7-Alkoxylated Furanopyrones: Semisynthesis of ()-Etharvensin, a New Styryl-Lactone from Goniothalamus arvensis” (J Nat Prod, 1997) are described below.

Calls of active or inactive are those of the source. The rule behind the calls is not given here.

In experiment [1] the test system is Aorta. The experiment is described as follows: Inhibition of noradrenaline-induced contractile response in rat aorta at 100 uM in presence of calcium. The format is functional, tissue-based.
Experiment [2] concerns Aorta. The experiment is described as follows: Inhibition of noradrenaline-induced contractile response in rat aorta in absence of calcium. The format is functional, tissue-based.

For the molecule `CCO[C@@H]1CC(=O)O[C@H]2[C@H](O)[C@@H](c3ccccc3)O[C@H]21`, the outcome in experiment [1] was inactive.

In the case of `O=C1CC[C@@H]2O[C@H](c3ccccc3)[C@@H](O)[C@@H]2O1` [GONIOTHARVENSIN], the IC50 in experiment [2] was determined as 80 µM. In addition, in experiment [1], the result was inactive.

As to `O=C1C=C[C@@H]2O[C@H](c3ccccc3)[C@@H](O)[C@@H]2O1` [ALTHOLACTONE], the IC50 in experiment [2] came to 78 µM. In addition, the result in experiment [1] was inactive.
